Measurements published in PubChem BioAssay (NCI).
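Exposure lasted 48 hours, with cells grown in 96-well plates and compounds tested at five concentrations. Abbreviation: GI50, concentration required for 50% inhibition of growth. At the TGI there is no net growth.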

Assays:
Test in all cases: NCI anticancer screen, dose series, 48 h
DLD-1 colon = tested on: DLD-1 colon
NCI-H460 lung = tested on: NCI-H460 lung
SNB-78 CNS = tested on: SNB-78 CNS
SF-295 CNS = tested on: SF-295 CNS
OVCAR-8 ovarian = tested on: OVCAR-8 ovarian
HS 578T breast = tested on: HS 578T breast
T-47D breast = tested on: T-47D breast
BT-549 breast = tested on: BT-549 breast
NCI/ADR-RES ovarian = tested on: NCI/ADR-RES ovarian
MCF7 breast = tested on: MCF7 breast

SMILES	TGI (DLD-1 colon) [µM]	TGI (NCI-H460 lung) [µM]	TGI (SNB-78 CNS) [µM]	TGI (SF-295 CNS) [µM]	TGI (OVCAR-8 ovarian) [µM]	GI50 (DLD-1 colon) [µM]	GI50 (NCI-H460 lung) [µM]	GI50 (SNB-78 CNS) [µM]	GI50 (SF-295 CNS) [µM]	GI50 (OVCAR-8 ovarian) [µM]	TGI (HS 578T breast) [µM]	TGI (T-47D breast) [µM]	TGI (BT-549 breast) [µM]	TGI (NCI/ADR-RES ovarian) [µM]	TGI (MCF7 breast) [µM]	GI50 (HS 578T breast) [µM]	GI50 (T-47D breast) [µM]	GI50 (BT-549 breast) [µM]	GI50 (NCI/ADR-RES ovarian) [µM]	GI50 (MCF7 breast) [µM]
O=C(O)COc1ccc(C(=O)/C(SS/C(C(=O)c2ccc(OCC(=O)O)c(Cl)c2Cl)=C2\C=C(c3ccc(Cl)cc3)SS2)=C2/C=C(c3ccc(Cl)cc3)SS2)c(Cl)c1Cl	24.6	35.6	25.5	82.5	> 100															
C(=N\Nc1ccccc1)/c1nc2ccccc2nc1/C=N/Nc1ccccc1	40.9	29	42.7	30.5	17															
COc1cc(O)c2c(c1)O[C@@H]1OCC[C@H]21	> 100	> 100	> 100	> 100	> 100															
COc1ccc(Cc2c(=O)[nH]nc3ccccc23)cc1	> 100	> 100	> 100	> 100	> 100															
CC[C@@]1(O)C(=O)OCc2c1cc1n(c2=O)Cc2cc3cccc([N+](=O)[O-])c3nc2-1	> 100	1.51	> 100	16	> 100	24.6	0.0671	34.3	0.346	0.857										
O=c1c2ccccc2nc(/C=C(\O)c2ccncc2)n1-c1ccc(Cl)cc1	> 100	> 100	> 100	> 100	> 100															
O=C(NCc1cccnc1)C1COc2cc(-c3cc(=O)c4ccccc4o3)ccc2O1 (configuration not stated)	> 100	> 100	> 100	> 69.8	> 55															
Nc1nc(Cl)cc(NCC(O)CO)n1 (configuration not stated)	> 100	> 100	> 100	> 100	> 100															
Cc1nn2c(nc1=O)sc1ccc3ccccc3c12	> 100	> 100	> 100	> 100	> 100															
O=[N+]([O-])c1cc([N+](=O)[O-])c(/C=C/c2ccc(Cl)c(Cl)c2)cc1/C=C/c1ccc(Cl)c(Cl)c1		> 100	> 100	81	> 100															
CCCCC(C(=O)CCC(=O)Nc1ccc(Cl)c(Cl)c1)C(=O)C(C)C (configuration not stated)	> 100	> 100	> 100	> 100	> 100															
CCc1nc(N)nc(N)c1-c1ccc2nnn(O)c2c1		> 100		> 100	> 100						> 100	> 100	> 100	> 100	> 100					
CC1(Br)CC2OC3(Br)C=CC(C)(O)C2(CC1=O)C3(C)C (configuration not stated)	> 100	> 100	> 100	> 100	> 100															
Nc1nc(N)c(-c2ccccc2)c(C(=O)Nc2ccccc2)n1	> 100	> 100	> 100		> 100															
CONC(C)=O		> 100		> 100	> 100						> 100	> 100	> 100	> 100	> 100					
N#CCCCCCOCCOCCOCCOCCOCCCCCC#N	> 100	> 100		> 100	> 100															
CCC(O)C1Cc2c(C)cc3c(c2O1)C(=O)c1ccccc1C3=O (configuration not stated)	> 100	> 100	90.6	86.8	> 100															
COc1ccc2c(O)c(/C=C3\N=Nc4ccccc43)oc2c1C[C@@H]1CCNC[C@H]1F		4.1		15.3	5.53		2.02		3.31	2.28	28.7	40.8	26.1	25.9	19.5	10.3	18.5	12.8	10.5	3.44
NC1CCCCC1N.O=[Se]([O-])[O-].[Pt+4] (configuration not stated)	> 83.8	5.15	> 100	21.6	> 100	1.81	0.205	69.8	0.304	0.922										
CCOC(=O)C(N=C(c1ccccc1)c1ccccc1)N(C(=O)OC(C)(C)C)C(=O)OC(C)(C)C (configuration not stated)			> 100	> 100	> 100															
CCCCCCCCCCCCSC1=C(Cl)C(=O)C(OC)=C(OC)C1=O		11.1		7	> 100		2.15		2.03	2.35	7.96	2.73	9.35	8.94	7.12	2.76	0.42	1.2	2.48	0.417
CCCc1cc(=O)n2c(C(=O)Nc3cccc(C(=O)OCC)c3)c(C(=O)Nc3ccc(F)cc3)sc2n1		> 140		> 140	15		13.3		44.6	3.63	6.37	> 140	> 140	> 140	> 140	1.3	13.5	> 140	22.3	> 140
Clc1ccc(Nc2ccnc(N3CCN(c4ccnc5cc(Cl)ccc45)CC3)n2)cc1		6.76		4.23	21.3		2.33		1.73	3.15	7.79	8.53	6.92	7.83	6.87	1.75	1.99	2.13	2.68	1.96
COc1cc2c(cc1Cc1cccc(Cl)c1F)c(=O)c(C(=O)O)cn2[C@@H](CO)C(C)C		10.6		5.53	11.8		3.07		2.14	3.03	32.7	18.3	8.66	19.4	16.3	3.97	5.5	2.09	4.99	3.54
CCOC(=O)Cc1csc(Nc2ccc(OCC)cc2)n1	> 100	> 100	> 100	> 100	> 100															
N=C(N)SCc1c2ccccc2c(CSC(=N)N)c2ccccc12		15.3		24.2	50.4		1.08		5.25	6.49	34.3	22.1	58.3	> 100	15.5	5.75	3.97	16.9	23.8	1.54
